{
  "source": "patent US8518973B2",
  "about": "“Compounds having 4-pyridylalkylthio group as a substituent” (Santen Pharmaceutical Co., Ltd., priority 2003, dated 2013)",
  "data": [
    {"system": "VEGF-induced HUVEC growth", "experiment": "VEGF-induced HUVEC growth reaction evaluation system (cell growth inhibitory action test)", "format": "cell-based", "settings": "Homo sapiens, 72 h, 20 μg/ml test compound solution added 5 μl per well (100 μl), VEGF solution 400 ng/ml 5 μl per well, three days, absorbance at 450 nm, read-out: Cell growth inhibition rate (%)", "method": "Cell growth inhibitory action tests were carried out using a VEGF-induced HUVEC growth reaction evaluation system (HUVEC stands for human umbilical vein endothelial cells), which is one of widely-used methods of evaluating in vitro angiogenesis inhibitory effects of drugs.\nAs one of widely-used methods of evaluating angiogenesis inhibitory effects of drugs, a cell growth inhibitory action test using a VEGF-induced HUVEC growth reaction evaluation system was reported in Cancer Res., 59, 99-106(1999). According to the method described in the above-mentioned literature, cell growth inhibitory action tests of the present compounds were carried out, their cell growth inhibition rates were calculated, and angiogenesis inhibitory effects of the present compounds were evaluated using the obtained rates as indexes.\nEach test compound was dissolved in dimethyl sulfoxide (hereinafter abbreviated as “DMSO”), and the obtained solution was diluted with commercially available phosphoric acid buffer solution (hereinafter abbreviated as “PBS”) to prepare a 20 μg/ml test compound solution.\nHUVEC was suspended in a 0.5% fetal bovine serum (hereinafter abbreviated as “FBS”)-containing F12K medium to prepare a 2×10^4 cells/ml HUVEC suspension.\nVEGF was dissolved in 0.1% bovine serum albumin-containing PBS, and the obtained solution was diluted with the 0.5% FBS-containing F12K medium to prepare a 400 ng/ml VEGF solution.\n• 1) The HUVEC suspension was inoculated in each amount of 100 μl into each well of a 96-well plate coated with I type collagen (2×10^3 cells per well). • 2) One day after inoculation, the test compound solution was added in an amount of 5 μl per well. • 3) One hour after adding the test compound solution, the VEGF solution was added in an amount of 5 μl per well. • 4) Three days after adding the VEGF solution, cell counting kit-8(Dojin Chemical Co., Ltd.) was added in an amount of 10 μl per well. • 5) After three hours, the above-mentioned plate was attached to an absorptiometer (multi label counter ARVO), and absorbance at 450 nm of each well suspension (hereinafter referred to as “test compound suspension”) was measured. • 6) A test was carried out in the same manner as in 1) to 5) except that 1.0% DMSO was used instead of the test compound solution.\nIncubation was carried out under conditions of 37° C., 5% carbon dioxide and 95% air in an incubator throughout the above-mentioned test steps.\nCell growth inhibition rates, which are indexes of angiogenesis inhibitory effects, were calculated by the following calculation equation.", "units": {"inhibition at 20 µg/mL (stock)": "%"}, "values": [
      {"compound": "Cc1cc(NC(=O)c2ccsc2SCc2ccncc2)ccc1Br", "note": "[1-289, N-(4-Bromo-3-methylphenyl)-2-(4-pyridylmethylthio)thiophene-3-carboxamide]", "inhibition at 20 µg/mL (stock)": 100},
      {"compound": "COc1ccc(NC(=O)c2ccccc2SCc2ccncc2)cc1OC", "note": "[1-93, N-(3,4-Dimethoxyphenyl)-2-(4-pyridylmethylthio)benzamide]", "inhibition at 20 µg/mL (stock)": 72},
      {"compound": "O=C(Nc1ccc(C(F)(F)F)cc1)c1ccsc1SCc1ccncc1", "note": "[1-290, 2-(4-Pyridylmethylthio)-N-(4-trifluoromethylphenyl)thiophene-3-carboxamide]", "inhibition at 20 µg/mL (stock)": 100},
      {"compound": "CC(C)c1cccc(NC(=O)c2cccnc2SCc2cc[n+]([O-])cc2)c1", "note": "[4-6, N-(3-Isopropylphenyl)-2-(1-oxopyridin-4-ylmethylthio)pyridine-3-carboxamide]", "inhibition at 20 µg/mL (stock)": 100},
      {"compound": "Cc1ccc(NC(=O)c2sccc2SCc2ccncc2)cc1F", "note": "[1-248, N-(3-Fluoro-4-methylphenyl)-3-(4-pyridylmethylthio)thiophene-2-carboxamide]", "inhibition at 20 µg/mL (stock)": 75},
      {"compound": "Cc1cccc(NC(=O)c2ccsc2SCc2ccncc2)c1", "note": "[1-285, N-(3-Methylphenyl)-2-(4-pyridylmethylthio)thiophene-3-carboxamide]", "inhibition at 20 µg/mL (stock)": 100},
      {"compound": "O=C(Nc1ccc(F)c(Cl)c1)c1cccnc1SCc1ccncc1", "note": "[1-75, N-(3-Chloro-4-fluorophenyl)-2-(4-pyridylmethylthio)pyridine-3-carboxamide]", "inhibition at 20 µg/mL (stock)": 100},
      {"compound": "Cc1cc(NC(=O)c2cccnc2SCc2ccncc2)ccc1OC(F)(F)F", "note": "[1-175, N-(3-Methyl-4-trifluoromethoxyphenyl)-2-(4-pyridylmethylthio)pyridine-3-carboxamide]", "inhibition at 20 µg/mL (stock)": 100},
      {"compound": "O=C(Nc1cc(F)cc(C(F)(F)F)c1)c1cccnc1SCc1ccncc1", "note": "[1-83, N-(3-Fluoro-5-trifluoromethylphenyl)-2-(4-pyridylmethylthio)pyridine-3-carboxamide]", "inhibition at 20 µg/mL (stock)": 100},
      {"compound": "CCOC(=O)c1cc(CSc2ncccc2C(=O)Nc2cc(C)cc(C)c2)ccn1", "note": "[1-241, N-(3,5-dimethylphenyl)-2-(2-ethoxycarbonylpyridin-4-ylmethylthio)pyridine-3-carboxamide]", "inhibition at 20 µg/mL (stock)": 96},
      {"compound": "Cc1cccc(NC(=O)c2sccc2SCc2ccncc2)c1", "note": "[1-263, N-(3-Methylphenyl)-3-(4-pyridylmethylthio)thiophene-2-carboxamide]", "inhibition at 20 µg/mL (stock)": 100},
      {"compound": "O=C(Nc1ccc(OC(F)(F)F)cc1)c1cccnc1SCc1ccnc(Cl)c1", "note": "[1-227, 2-(2-Chloropyridin-4-ylmethylthio)-N-(4-trifluoromethoxyphenyl)pyridine-3-carboxamide]", "inhibition at 20 µg/mL (stock)": 60},
      {"compound": "O=C(Nc1ccc(F)c(C(F)(F)F)c1)c1cccnc1SCc1ccncc1", "note": "[1-77, N-(4-Fluoro-3-trifluoromethylphenyl)-2-(4-pyridylmethylthio)pyridine-3-carboxamide]", "inhibition at 20 µg/mL (stock)": 100},
      {"compound": "Cc1cc(C)cc(NC(=O)c2cccnc2SCc2ccnc(F)c2)c1", "note": "[1-213, N-(3,5-Dimethylphenyl)-2-(2-fluoropyridin-4-ylmethylthio)pyridine-3-carboxamide]", "inhibition at 20 µg/mL (stock)": 100},
      {"compound": "O=C(Nc1cc2ccccc2cn1)c1sccc1SCc1ccncc1", "note": "[1-274, N-(3-Isoquinolyl)-3-(4-pyridylmethylthio)thiophene-2-carboxamide]", "inhibition at 20 µg/mL (stock)": 95},
      {"compound": "O=C(Nc1ccc(Cl)cc1F)c1cccnc1SCc1ccncc1", "note": "[1-69, N-(4-Chloro-2-fluorophenyl)-2-(4-pyridylmethylthio)pyridine-3-carboxamide]", "inhibition at 20 µg/mL (stock)": 95},
      {"compound": "CC(C)c1cccc(NC(=O)c2cccnc2SCc2ccncc2)c1", "note": "[1-35, N-(3-Isopropylphenyl)-2-(4-pyridylmethylthio)pyridine-3-carboxamide]", "inhibition at 20 µg/mL (stock)": 100},
      {"compound": "Cc1cc(NC(=O)c2cccnc2SCc2cc[n+]([O-])cc2)ccc1F", "note": "[4-7, N-(4-Fluoro-3-methylphenyl)-2-(1-oxopyridin-4-ylmethylthio)pyridine-3-carboxamide]", "inhibition at 20 µg/mL (stock)": 100}
    ]}
  ]
}
